# Reference: PMC7725824, “Fused isoselenazolium salts suppress breast cancer cell growth by dramatic increase in pyruvate-dependent mitochondrial ROS production” (Scientific Reports, 2020)
# Columns and labels:
# [1] = test system: DOPC liposomes; test: 1H NMR interaction study with DOPC liposomes; assay type: binding; conditions: 0.4 mM 6, 1.6 mM DOPC, 25 °C
# Procedure: (§1) Cardiolipin (CL) liposomes for NMR analysis were prepared by the thin-film method followed by sonication and extrusion. […] The obtained lipid thin film was dried in vacuo overnight. Then, the dry lipid film was rehydrated in D18 HEPES buffer (20 mM, pH 7.4, 10% D2O) and gently vortexed, and the samples were sonicated for 30 min in a bath-type sonicator. The obtained sample of liposomes was extruded 21 times through a 100-nm pore polycarbonate filter (Nucleopore Corp., CA). Similarly, liposomes from DOPC only were prepared.
# (§2) To study the interactions of compound 6 with CL and DOPC liposomes, a stock solution of 6 (2 mM) in D18 HEPES buffer (20 mM, pH 7.4, 10% D2O) was added to CL/DOPC or DOPC liposome dispersions to reach 400:1200:400 µM CL/DOPC/6 solution or 1600:400 µM DOPC/6 solution followed by gentle vortexing for 30 s.
# (§3) NMR spectra were acquired on a 600‐MHz Bruker Avance NEO spectrometer equipped with a 5 mm QCI-F quadruple resonance pulsed‐field‐gradient cryoprobe. The temperature was calibrated against methanol and set to 25 °C. Chemical shifts were referenced to the water resonance at 4.77 ppm with respect to 4,4-dimethyl-4-silapentane-1-sulfonic acid (DSS). The samples contained […] 6 in 90% H2O and 10% D2O with and without DOPC or CL/DOPC liposomes. The NMR data were processed and analyzed using MestReNova software.
# [2] = test system: CL/DOPC liposomes (cardiolipin); test: 1H NMR interaction study with CL-containing liposomes; assay type: binding; conditions: 0.4 mM 6, 1.2 mM DOPC, 0.4 mM CL, 25 °C
# Procedure: as §1, §2, §3
# [3] = Cytotoxicity assay (MTT), HEKa; assay type: cell-based, human; conditions: human, HEKa cells (primary epidermal keratinocytes), normal cell line, mean ± S.D., 3 experiments
# Procedure: (§4) MCF-7 (human breast adenocarcinoma, estrogen-positive) and 4T1 (mouse carcinoma), as breast cancer cell lines, and H9C2 (rat cardiomyoblasts), NIH 3T3 (mouse fibroblasts), HEKa (primary human epidermal keratinocytes), MDCK (Madin-Darby Canine Kidney) cells, and A7r5 (rat vascular smooth muscle cells), as normal cell lines, were obtained from the American Type Culture Collection [ATCC] collection for use in the current study. All cell lines were cultured in Dulbecco's modified Eagle's medium (DMEM) containing 10% fetal bovine serum (FBS) and 4 mM L-glutamine at 37 °C and 5% CO2.
# (§5) Cell viability was assessed by the addition of 3-(4,5-dimethylthiazol-2-yl)-2,5-diphenyltetrazolinium bromide (MTT). Briefly, cells were seeded (2–6 × 10^4 cells/ml) in 96-well plates and allowed to attach for 24 h. Solutions of test compounds were prepared and serially diluted to obtain the appropriate concentrations. The cells were treated with the test compounds at different concentrations (0.032–100 µM) and incubated for 48 h at 37 °C and 5% CO2. Then, the culture medium was removed, and medium containing 0.2 mg/ml MTT was added. After 3 h (37 °C, 5% CO2), the MTT-containing medium was removed, and 200 μl of dimethyl sulfoxide (DMSO) was immediately added to each sample. The absorbance was assessed at 540 nm using a Tecan multiplate reader Infinite 1000 (Austria). The half-maximal inhibitory concentration (IC50) of each compound was calculated using Graph Pad Prism 3.0.
# [4] = test system: MCF-7 cells; test: Fluorometric measurement of NMN level; assay type: cell-based, human; conditions: 2 μM, 10 min, vs control
# Procedure: For fluorometric measurements of NMN, a previously described method was used, with minor modifications. […] The cells were washed with PBS and then lysed by adding 200 μl of 1 M HClO4 to each well and incubating at 4 °C for 20 min. The cells were harvested by scraping and transferred to a tube. The extracts were neutralized with 100 μl of 2 M KOH for 5 min at room temperature and 50 μl of 0.1 M bicine (pH 7.4) was added. The samples were centrifuged at 14 000 × g for 10 min at 4 °C, and the supernatant was collected for further analysis. The protein concentration in each sample was determined using a Bio-Rad protein assay kit. […] The reaction was incubated for 2 min at 4 °C, after which 45 μl of 88% formic acid was added, and the samples were incubated for another 10 min at 37 °C on a shaker. The fluorescence was measured using a Tecan multiplate reader Infinite 1000 (Austria) with excitation at 382 nm and emission at […].
# [5] = test system: MCF-7; test: Cytotoxicity assay (MTT), MCF-7; assay type: cell-based, human; conditions: Homo sapiens, MCF7; breast cancer cell line; MTT, 48 h; mean ± S.D., 3 experiments; read-out: Cytotoxicity, IC50, MCF-7
# Procedure: as §4, §5
# [6] = test system: MCF-7 cells; test: NAD+/NADH assay kit measurement; assay type: cell-based, human; conditions: 2 μM, 10 min, vs control
# Procedure: The NAD^+/NADH ratio in the MCF-7 cells exposed to the test compounds (2 μM) for 10 min was measured using an NAD^+/NADH assay kit (Abcam, ab65348) according to the manufacturer's instructions.
# [7] = Cytotoxicity assay (MTT), H9C2; assay type: cell-based, rat; conditions: rat, H9C2 cells (cardiomyoblasts); normal cell line; MTT, 48 h; mean ± S.D., 3 experiments
# Procedure: as §4, §5
# [8] = Cytotoxicity assay (MTT), MDCK; assay type: cell-based, Canine; conditions: dog, MDCK cells, normal cell line, mean ± S.D., 3 experiments
# Procedure: as §4, §5
compound,measurement,setting,value
"OC1(c2[se][n+]3ccsc3c2Br)CCCCC1 [Compound 6, 3-bromo-2-(1-hydroxycyclohexyl)[1,2]selenazolo[2,3-b]thiazolium chloride]",aromatic 1H NMR resonances in the presence of DOPC liposomes,[1],noticeably broadened
same,1H NMR resonances in the presence of CL-containing liposomes,[2],broadened
same,IC50 at 48 h,[3],2.84 ± 0.08 µM
same,decrease in NMN levels,[4],26%
same,IC50,[5],3.23 ± 0.03 µM
same,decrease in NAD+ level,[6],25%
same,decrease in NAD+/NADH ratio,[6],without affecting
same,decrease in NADH level,[6],without affecting
same,IC50 at 48 h,[7],3.7 ± 0.2 µM
same,IC50 at 48 h,[8],6.58 ± 0.33 µM
